Test results reported in patent US20240132431A1, “METHOD FOR ALKYLATING ACIDIC FUNCTIONAL GROUP” (Chugai Seiyaku Kabushiki Kaisha, priority 2021, published 2024).

Molecular target: T1, Bcl-2 protein (Recombinant Human Bcl-2 Protein) (Homo sapiens, UniProt P10415)
T1 construct: purchased Novus NBP2-34889
Assay: Binding evaluation of mixture library compounds to Bcl-2 using AS-MS (affinity selection mass spectrometry)
Conditions: AS-MS, mixture library, Bcl-2, ASMS Ratio(%)=(A−C)/B×100; for ASMS ratio (%) n = 1: replicate n = 1; for ASMS ratio (%) n = 2: replicate n = 2
In short: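 Bcl-2 binding is scored from LC/MS signal retained with protein through gel-filtration spin columns, normalised to unfiltered and protein-free controls. Incubation: 20 μM protein, […] per compound, 1 h, 23° C.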

T1 sequence (P10415 whole entry): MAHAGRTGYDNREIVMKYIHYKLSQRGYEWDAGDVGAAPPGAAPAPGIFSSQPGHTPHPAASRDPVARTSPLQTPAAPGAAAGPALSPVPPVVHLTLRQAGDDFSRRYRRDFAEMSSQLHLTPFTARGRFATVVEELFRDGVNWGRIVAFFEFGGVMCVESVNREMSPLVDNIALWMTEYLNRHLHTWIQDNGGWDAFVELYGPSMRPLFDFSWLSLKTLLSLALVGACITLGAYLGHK

Compound | ASMS ratio (%) n = 1 [%] | ASMS ratio (%) n = 2 [%]
CCOc1cccc(-c2ccccc2CCC(=O)N2CCN(c3ccc(C(=O)NS(=O)(=O)CC45CC6CC(CC(C6)C4)C5)nn3)CC2)c1 [B2A011-01, N-(1-Adamantylmethylsulfonyl)-6-[4-[3-[2-(3-ethoxyphenyl)phenyl]propanoyl]piperazin-1-yl]pyridazine-3-carboxamide] | 9.0 | 0.3
CCOc1cncc(-c2ccccc2CCC(=O)N2CCN(c3ccc(C(=O)NS(=O)(=O)CC45CC6CC(CC(C6)C4)C5)nn3)CC2)c1 [B2A012-01, N-(1-Adamantylmethylsulfonyl)-6-[4-[3-[2-(5-ethoxypyridin-3-yl)phenyl]propanoyl]piperazin-1-yl]pyridazine-3-carboxamide] | 1.5 | 1.9
CCOc1cccc(-c2ccc(C(=O)N3CCN(c4ccc(C(=O)NS(=O)(=O)CC56CC7CC(CC(C7)C5)C6)nn4)CC3)c3ccccc23)c1 [B2A013-01, N-(1-Adamantylmethylsulfonyl)-6-[4-[4-(3-ethoxyphenyl)naphthalene-1-carbonyl]piperazin-1-yl]pyridazine-3-carboxamide] | 11.6 | 17.8
CCOc1cncc(-c2ccc(C(=O)N3CCN(c4ccc(C(=O)NS(=O)(=O)CC56CC7CC(CC(C7)C5)C6)nn4)CC3)c3ccccc23)c1 [B2A014-01, N-(1-Adamantylmethylsulfonyl)-6-[4-[4-(5-ethoxypyridin-3-yl)naphthalene-1-carbonyl]piperazin-1-yl]pyridazine-3-carboxamide] | 7.7 | 2.2
CCOc1cccc(-c2cc(C(=O)N3CCN(c4ccc(C(=O)NS(=O)(=O)CC56CC7CC(CC(C7)C5)C6)nn4)CC3)cc(C(C)(C)C)c2)c1 [B2A015-01, N-(1-Adamantylmethylsulfonyl)-6-[4-[3-tert-butyl-5-(3-ethoxyphenyl)benzoyl]piperazin-1-yl]pyridazine-3-carboxamide] | 5.9 | 9.7
CCOc1cncc(-c2cc(C(=O)N3CCN(c4ccc(C(=O)NS(=O)(=O)CC56CC7CC(CC(C7)C5)C6)nn4)CC3)cc(C(C)(C)C)c2)c1 [B2A016-01, N-(1-Adamantylmethylsulfonyl)-6-[4-[3-tert-butyl-5-(5-ethoxypyridin-3-yl)benzoyl]piperazin-1-yl]pyridazine-3-carboxamide] | 0.0 | 2.5
CCOc1cccc(-c2cc(C(=O)N3CCN(c4ccc(C(=O)NS(=O)(=O)CC56CC7CC(CC(C7)C5)C6)nn4)CC3)cc(C(F)(F)F)c2)c1 [B2A017-01, N-(1-Adamantylmethylsulfonyl)-6-[4-[3-(3-ethoxyphenyl)-5-(trifluoromethyl)benzoyl]piperazin-1-yl]pyridazine-3-carboxamide] | 18.6 | 7.5
CCOc1cncc(-c2cc(C(=O)N3CCN(c4ccc(C(=O)NS(=O)(=O)CC56CC7CC(CC(C7)C5)C6)nn4)CC3)cc(C(F)(F)F)c2)c1 [B2A018-01, N-(1-Adamantylmethylsulfonyl)-6-[4-[3-(5-ethoxypyridin-3-yl)-5-(trifluoromethyl)benzoyl]piperazin-1-yl]pyridazine-3-carboxamide] | 5.1 | 0.0
CCOc1cccc(C#Cc2cc(C(=O)N3CCN(c4ccc(C(=O)NS(=O)(=O)CC56CC7CC(CC(C7)C5)C6)nn4)CC3)cc(C(F)(F)F)c2)c1 [B2A019-01, N-(1-Adamantylmethylsulfonyl)-6-[4-[3-[2-(3-ethoxyphenyl)ethynyl]-5-(trifluoromethyl)benzoyl]piperazin-1-yl]pyridazine-3-carboxamide] | 7.4 | 5.0
CCOc1cncc(C#Cc2cc(C(=O)N3CCN(c4ccc(C(=O)NS(=O)(=O)CC56CC7CC(CC(C7)C5)C6)nn4)CC3)cc(C(F)(F)F)c2)c1 [B2A020-01, N-(1-Adamantylmethylsulfonyl)-6-[4-[3-[2-(5-ethoxypyridin-3-yl)ethynyl]-5-(trifluoromethyl)benzoyl]piperazin-1-yl]pyridazine-3-carboxamide] | 3.4 | 8.9
CCOc1cccc(-c2cnn(-c3cc(C(=O)N4CCN(c5ccc(C(=O)NS(=O)(=O)CC67CC8CC(CC(C8)C6)C7)nn5)CC4)cc(C(F)(F)F)c3)c2)c1 [B2A021-01, N-(1-Adamantylmethylsulfonyl)-6-[4-[3-[4-(3-ethoxyphenyl)pyrazol-1-yl]-5-(trifluoromethyl)benzoyl]piperazin-1-yl]pyridazine-3-carboxamide] | 14.4 | 9.4
CCOc1cncc(-c2cnn(-c3cc(C(=O)N4CCN(c5ccc(C(=O)NS(=O)(=O)CC67CC8CC(CC(C8)C6)C7)nn5)CC4)cc(C(F)(F)F)c3)c2)c1 [B2A022-01, N-(1-Adamantylmethylsulfonyl)-6-[4-[3-[4-(5-ethoxypyridin-3-yl)pyrazol-1-yl]-5-(trifluoromethyl)benzoyl]piperazin-1-yl]pyridazine-3-carboxamide] | 27.0 | 3.7
CCOc1cccc(-c2csc(C(=O)N3CCN(c4ccc(C(=O)NS(=O)(=O)CC56CC7CC(CC(C7)C5)C6)cc4)CC3)c2)c1 [B2A023-01, N-(1-Adamantylmethylsulfonyl)-4-[4-[4-(3-ethoxyphenyl)thiophene-2-carbonyl]piperazin-1-yl]benzamide] | 0.0 | 0.0
CCOc1cncc(-c2csc(C(=O)N3CCN(c4ccc(C(=O)NS(=O)(=O)CC56CC7CC(CC(C7)C5)C6)cc4)CC3)c2)c1 [B2A024-01, N-(1-Adamantylmethylsulfonyl)-4-[4-[4-(5-ethoxypyridin-3-yl)thiophene-2-carbonyl]piperazin-1-yl]benzamide] | −1.9 | 0.0
CCOc1cccc(-c2ccc(C(=O)N3CCN(c4ccc(C(=O)NS(=O)(=O)CC56CC7CC(CC(C7)C5)C6)cc4)CC3)cc2C)c1 [B2A025-01, N-(1-Adamantylmethylsulfonyl)-4-[4-[4-(3-ethoxyphenyl)-3-methylbenzoyl]piperazin-1-yl]benzamide] | 4.6 | −2.7
CCOc1cncc(-c2ccc(C(=O)N3CCN(c4ccc(C(=O)NS(=O)(=O)CC56CC7CC(CC(C7)C5)C6)cc4)CC3)cc2C)c1 [B2A026-01, N-(1-Adamantylmethylsulfonyl)-4-[4-[4-(5-ethoxypyridin-3-yl)-3-methylbenzoyl]piperazin-1-yl]benzamide] | 0.8 | −2.1
CCOc1cccc(-c2ccc(C(=O)N3CCN(c4ccc(C(=O)NS(=O)(=O)CC56CC7CC(CC(C7)C5)C6)cc4)CC3)cc2F)c1 [B2A027-01, N-(1-Adamantylmethylsulfonyl)-4-[4-[4-(3-ethoxyphenyl)-3-fluorobenzoyl]piperazin-1-yl]benzamide] | 5.5 | −3.9
CCOc1cncc(-c2ccc(C(=O)N3CCN(c4ccc(C(=O)NS(=O)(=O)CC56CC7CC(CC(C7)C5)C6)cc4)CC3)cc2F)c1 [B2A028-01, N-(1-Adamantylmethylsulfonyl)-4-[4-[4-(5-ethoxypyridin-3-yl)-3-fluorobenzoyl]piperazin-1-yl]benzamide] | −1.0 | 1.2
CCOc1cncc(C#Cc2ccccc2C(=O)N2CCN(c3ccc(C(=O)NS(=O)(=O)CC45CC6CC(CC(C6)C4)C5)cc3)CC2)c1 [B2A030-01, N-(1-Adamantylmethylsulfonyl)-4-[4-[2-[2-(5-ethoxypyridin-3-yl)ethynyl]benzoyl]piperazin-1-yl]benzamide] | 0.0 | 0.3
CCOc1cccc(C#Cc2cncc(C(=O)N3CCN(c4ccc(C(=O)NS(=O)(=O)CC56CC7CC(CC(C7)C5)C6)cc4)CC3)c2)c1 [B2A031-01, N-(1-Adamantylmethylsulfonyl)-4-[4-[5-[2-(3-ethoxyphenyl)ethynyl]pyridine-3-carbonyl]piperazin-1-yl]benzamide] | 0.0 | 0.3
CCOc1cncc(C#Cc2cncc(C(=O)N3CCN(c4ccc(C(=O)NS(=O)(=O)CC56CC7CC(CC(C7)C5)C6)cc4)CC3)c2)c1 [B2A032-01, N-(1-Adamantylmethylsulfonyl)-4-[4-[5-[2-(5-ethoxypyridin-3-yl)ethynyl]pyridine-3-carbonyl]piperazin-1-yl]benzamide] | 0.0 | 0.0
CCOc1cccc(-c2ccccc2CCC(=O)N2CCN(c3ccc(C(=O)NS(=O)(=O)CC45CC6CC(CC(C6)C4)C5)cc3)CC2)c1 [B2A033-01, N-(1-Adamantylmethylsulfonyl)-4-[4-[3-[2-(3-ethoxyphenyl)phenyl]propanoyl]piperazin-1-yl]benzamide] | 1.7 | −4.5
CCOc1cncc(-c2ccccc2CCC(=O)N2CCN(c3ccc(C(=O)NS(=O)(=O)CC45CC6CC(CC(C6)C4)C5)cc3)CC2)c1 [B2A034-01, N-(1-Adamantylmethylsulfonyl)-4-[4-[3-[2-(5-ethoxypyridin-3-yl)phenyl]propanoyl]piperazin-1-yl]benzamide] | 1.6 | 0.3
CCOc1cccc(-c2ccc(C(=O)N3CCN(c4ccc(C(=O)NS(=O)(=O)CC56CC7CC(CC(C7)C5)C6)cc4)CC3)c3ccccc23)c1 [B2A035-01, N-(1-Adamantylmethylsulfonyl)-4-[4-[4-(3-ethoxyphenyl)naphthalene-1-carbonyl]piperazin-1-yl]benzamide] | 6.2 | −9.8
